Measured values taken from US6818618B1, “Inhibition of smooth muscle cell migration by Tenascin-C peptides” (Cedars-Sinai Medical Center, priority 1998, dated 2004).
Entries after “also recorded” stand apart in the source; their conditions may differ.

What was measured:
[1] = test system: adhesion of newborn SMCs to the Fbg-L domain; assay: Adhesion of newborn SMCs to Fbg-L domain-coated wells in the presence of soluble agents; type: cell-based, rat; details: EDTA or cations; not shown
Experimental: (§1) Microtiter plates (Falcon, Becton Dickinson, Oxnard, Calif.) were coated with the respective substrate for one (1) hour at 37° C. Nonspecific sites were blocked with 1 mg/ml BSA in PBS. […] After incubation for 60 min. at 37° C., nonadherent cells were removed with gentle washing with PBS. The number of attached cells were quantified by staining cells with 0.2% crystal violet in 20% methanol, lysing with 1% SDS, and measuring the absorbance at 550 nm (14).
(§2) In FIG. 8(B), 96-well plates were coated with BSA, intact Tenascin-C (TN) or the fibrinogen-like domain (Fbg-L), and adhesion of newborn cells was measured in the presence of 1 μM synthetic peptides.

[2] = test system: adhesion of newborn SMCs to Tenascin-C; assay: Adhesion of newborn SMCs to Tenascin-C-coated wells in the presence of soluble agents; type: cell-based, rat; details: for effect on adhesion of SMCs to Tenascin-C (summary statement): concentration not given; for inhibition of attachment of SMCs to Tenascin-C: 0.1 mg/ml GRGDS peptide, higher concentrations did not significantly alter adhesion
Experimental: as §1
(§3) It has been shown that the interaction of some cells with Tenascin-C is mediated by the RGD motif (20, 23). Therefore, an adhesion assay was used to determine the role of RGD in the interaction between Tenascin-C and SMCs. The specificity of the adhesion was determined by coating the wells with the recombinant 10th-type III repeat of fibronectin (24). In FIG. 2, 96-well plates were coated with either BSA (BSA), Tenascin-C (TN), or the recombinant 10th-type III repeat of fibronectin (10III) as described for FIG. 1. Newborn SMCs were detached, washed once in adhesion buffer and added to various concentrations of the peptide GRGDS. Cells and peptides were then preincubated for 30 min. prior to plating. The values shown are the mean±SEM of triplicate samples. Nonspecific binding to control wells coated with BSA was not subtracted from each value.
(§4) In FIG. 3, 96-well plates were coated with solutions containing intact fibronectin (FN), the recombinant 10th-type III repeat of fibronectin (FN10III), or Tenascin-C (TN). […] The number of attached cells was quantified by a colorimeter. Values shown are from a representative experiment in which triplicates are plotted as mean±SEM.
(§5) In FIG. 4, 96-well plates were coated with either Tenascin-C (TN) or the recombinant tenth type III repeat of fibronectin (10III) as described for FIG. 1. […] Values shown are from the mean±SD of triplicate samples.
To distinguish between these possibilities, the recombinant FN-L proteins were labeled with ^125I, and their ability to coat the tissue culture dishes was compared to the Fbg-L domain. […] To determine whether the binding to tissue culture dishes had influenced the activity of the recombinant proteins, the ability of soluble Fbg-L or FN-L domains and subdomains to inhibit the interaction between intact Tenascin-C and SMCs was examined. […] In FIG. 6, 96-well plates were coated with fibronectin (FN), the recombinant tenth type III repeat of fibronectin (10III), or an intact Tenascin-C molecule (TN). Newborn SMCs were incubated for 15 min. at 37° C. with a solution of 200 μg/ml of a recombinant Fbg-L domain, the entire FN-L domain (FN-L), or the alternatively spliced A-D repeats (AD). […] Adhesion was measured as described above. Values shown are from representative experiments in which triplicates are plotted±SEM.
as §2

[3] = test system: adhesion of SMCs to peptide VIII; assay: Adhesion of SMCs to peptide VIII-coated wells in the presence of soluble agents; type: cell-based, rat; details: EDTA or cations; not shown
Experimental: as §1

[4] = test system: adhesion of newborn SMCs to the recombinant 10th-type III repeat of fibronectin; assay: Adhesion of newborn SMCs to the recombinant 10th-type III repeat of fibronectin in the presence of soluble agents; type: cell-based, rat
Experimental: as §1, §3, §4, §5
To distinguish between these possibilities, the recombinant FN-L proteins were labeled with ^125I, and their ability to coat the tissue culture dishes was compared to the Fbg-L domain. […] Adhesion was measured as described above. […]

[5] = test system: newborn aortic SMCs; assay: Adhesion assay: newborn SMCs on wells coated with the substance; type: cell-based, rat; details: for adhesion activity relative to the Fbg-L domain: peptide coated at 10 μg/ml on tissue culture dishes; for level of adhesion of newborn SMCs to coated substrate: wells coated with 10 μg/ml substrate
Experimental: (§6) Adult Aortic SMCs were cultured as described (12). Newborn (9-day old) aortic SMCs were obtained from Dr. Stephen, M. Schwartz, of University of Washington, and subsequently cultured (13). Briefly, rat aortic SMCs were isolated by enzymatic digestion of rat aorta (Sprague-Dawley, 2 months old, 270 g). Cells were grown in DMEM/F12 media (Gibco) supplemented with 10% fetal bovine serum (Gibco). After reaching confluence, cells (between 3rd and 6th passages) were used for adhesion studies.
as §1
To determine the concentration for the adhesion assays, microtiter plates were coated with increasing concentrations (1-100 μg/ml) of substrates, and the number of adherent cells was quantified. Adhesion of cells to Tenascin-C reached saturation levels at coating concentrations of 10 μg/ml (not shown). Therefore, all the subsequent adhesion assays were performed by coating the wells with a 10 μg/ml substrate.
The active domain of Tenascin-C was mapped using recombinant proteins corresponding to full-length Fbg-L and FN-L domains as well as FN-L subdomains 6-8, A-D, A1A2, and D. The ability of these domains, or subdomains, to interact with newborn SMCs was determined by an adhesion assay, and the results are shown in FIG. 5. In FIG. 5, a microtiter plate was coated with BSA, fibronectin (FN), intact Tenascin-C (TN), and the recombinant proteins corresponding to: the Fbg-L domain (Fbg-L), the entire FN-L repeats (AII), the constitutively spliced repeats 6-8, the alternatively spliced A-D, A1A2, and D domains. An adhesion assay was performed with newborn SMCs. Values shown are from a representative experiment in which triplicates are plotted±SEM.
The ability of the synthetic peptides to directly interact with newborn cells was determined by an adhesion assay. […] In FIG. 8, 96-well plates were coated with solutions containing BSA (C), fibronectin (FN), Tenascin-C (TN), the fibrinogen-like domain (Fbg-L), and synthetic peptides at a concentration of 10 μg/ml in PBS. An adhesion assay was performed with newborn rat SMCs. Tissue culture plates were coated with increasing concentrations of peptides from 0.1 to 10 μg/ml, and the adhesion of newborn cells was measured. Values shown are from a representative experiment in which triplicates are plotted as mean±SEM.

[6] = test system: newborn rat SMCs migration on Tenascin-C substrate; assay: Migration assay (modified Boyden's chamber) on Tenascin-C substrate; type: cell-based
Experimental: (§7) Cell migration was measured by a modification of the Boyden's chamber method using microchemotaxis chambers (Neuro Probe Inc.). Polycarbonate filters were coated with 10 μg/ml of substrates overnight at 4° C. Newborn rat SMCs were suspended at a concentration of 10^5 cells/ml in serum-free DMEM supplemented with 1 mg/ml BSA. A volume of 50 μl of cell suspension was placed in the upper chamber, and 30 μl of 10% bovine calf serum in DMEM was placed in the lower chamber. In some experiments, cells were suspended in DMEM supplemented with 0.1 μM of the fibrinogen-like domain (Fbg-L) or 1 μM of peptide VIII before addition to the upper chamber. The chamber was incubated at 37° C. under 5% CO2 in air for 4 hours. The filter was removed, and the cells on the upper side of the filter were scraped off. The SMCs that had migrated to the lower side of the filter were fixed in methanol, stained with Diff-Quick staining solution (Baxter) and counted under a microscope.
(§8) To map the active domain of Tenascin-C that is involved in cell migration, the ability of the recombinant domains to block SMCs migration on a Tenascin-C substrate was determined. […] In FIG. 9, cell migration was measured by a modification of Boyden's chamber. […] Migrating cells were fixed and counted under a microscope. Nine high power fields (HPF) were counted for each triplicate. […]

[7] = test system: adult rat aortic SMCs; assay: Adhesion assay: adult aortic SMCs on wells coated with the substance; type: cell-based; details: for adhesion of adult SMCs to coated substrate: 60 min, crystal violet absorbance
Experimental: as §6, §1
Interaction between aortic SMCs and Tenascin-C was assessed by an adhesion assay. […] In FIG. 1, 96-well plates were coated with solutions containing intact fibronectin (FN), vitronectin (VN) or Tenascin-C (TN) and incubated with either adult or newborn aortic SMCs. Adhesion is measured by determining absorbance of attached cells after staining with crystal violet. Values shown are from a representative experiment in which triplicates are plotted as mean±SEM.

[8] = test system: newborn rat SMCs migration on collagen substrate; assay: Migration assay (modified Boyden's chamber) on collagen substrate; type: cell-based; details: Fbg-L or 1 μM peptide VIII in upper chamber
Experimental: as §7, §8

[9] = increasing cation concentration
[10] = various concentrations of cation

Molecule: [Mg+2] [Mg^2+]
- effect on adhesion of SMCs to the Fbg-L domain [1]: promoted
- effect on adhesion of SMCs to Tenascin-C (summary statement) [2]: promoted
- increase potential for the interaction between newborn SMCs and Tenascin-C ([2]; in the presence of Mg^2+): three-fold
- cation concentration giving maximal cell adhesion to Tenascin-C [2, 9]: 5 to 10 mM
- effect of cation on newborn SMCs adhesion to Tenascin-C [2, 10]: increased
- effect on adhesion to peptide VIII [3]: promoted
- cation concentration giving maximal cell adhesion to the recombinant fibronectin fragment [4, 9]: 5 to 10 mM
- effect of cation on newborn SMCs adhesion to the recombinant fibronectin fragment [4, 10]: increased

Molecule: GRFDS
- effect of inactive control peptide on adhesion (compared with GRGDS) ([2]; not shown): no effect

Molecule: GRGDS
- inhibition of attachment of SMCs to Tenascin-C [2]: approximately 30%
- inhibition of attachment of SMCs to Tenascin-C ([2]; listed as RGD peptide): 30%
- inhibition of attachment of newborn SMCs to the recombinant fibronectin fragment ([4]; 0.1 mg/ml peptide, 30 min preincubation): complete inhibition

Molecule: IX: 30 amino acid synthetic peptide from the C-terminal part of the Fbg-L domain of Tenascin-C, Seq. Id. No. 9 (FHWKGHEHSIQFAEMKLRPSNFRNLEGRRKRA)
- adhesion activity relative to the Fbg-L domain [5]: 30%

Molecule: Tenascin-C: intact Tenascin-C purified from conditioned media of BHK cells overexpressing Tenascin-C
- SMCs chemotaxis on coated substrate compared to BSA ([6]; filters coated with 10 μg/ml substrate): stimulated
- adhesion of adult SMCs to Tenascin-C relative to attachment to the adhesive proteins (fibronectin, vitronectin) ([7]; coated wells): 3-4 times lower
- coating concentration at which cell adhesion reached saturation levels ([5]; increasing coating concentrations): 10 µg/mL
- adhesion of newborn SMCs to Tenascin-C relative to adult cells ([5]; newborn vs adult SMCs, coated wells): 3-4 times higher
- level of adhesion of newborn SMCs to coated substrate [5]: comparable to the attachment levels observed with fibronectin; also recorded: high compared to the fibronectin

Molecule: fibronectin
- adhesion of adult SMCs to coated substrate [7]: avidly adhered

Molecule: peptide VIII: 30 amino acid synthetic peptide located near the C-terminal part of the Fbg-L domain of Tenascin-C, Seq. Id. No. 8 (WYRNCHRVNLMGRYGDNNHSQGVNWFHWKG)
- effect on migration of SMCs on collagen substrate [8]: did not interfere
- inhibition of SMCs chemotaxis on Tenascin-C substrate ([6]; 0.1 μM Fbg-L or 1 μM peptide VIII in upper chamber, 4 hours): ~70%
- effect on adhesion of SMCs to Tenascin-C (summary statement) [2]: completely blocked
- adhesion activity relative to the Fbg-L domain [5]: 80%
- level of adhesion of newborn SMCs to coated substrate [5]: strongly promoting newborn cell adhesion

B1: vitronectin: vitronectin matrix protein (protein, UniProt P04004 20-478, looked up)
Vitronectin: DQESCKGRCTEGFNVDKKCQCDELCSYYQSCCTDYTAECKPQVTRGDVFTMPEDEYTVYDDGEEKNNATVHEQVGGPSLTSDLQAQSKGNPEQTPVLKPEEEAPAPEVGASKPEGIDSRPETLHPGRPQPPAEEELCSGKPFDAFTDLKNGSLFAFRGQYCYELDEKAVRPGYPKLIRDVWGIEGPIDAAFTRINCQGKTYLFKGSQYWRFEDGVLDPDYPRNISDGFDGIPDNVDAALALPAHSYSGRERVYFFKGKQYWEYQFQHQPSQEECEGSSLSAVFEHFAMMQRDSWEDIFELLFWGRTSAGTRQPQFISRDWHGVPGQVDAAMAGRIYISGMAPRPSLAKKQRFRHRNRKGYRSQRGHSRGRNQNSRRPSRATWLSLFSSEESNLGANNYDDYRMDWLVPATCEPIQSVFFFSGDKYYRVNLRTRRVDTVDPPYPRSIAQYWLGCPAPGHL
- adhesion of adult SMCs to coated substrate [7]: avidly adhered
